From US11459318B2, “Pesticidally active pyrrole derivatives” (Syngenta Participations AG, priority 2017, dated 2022)
Where two headings read alike, the source gives them in different places.

Experiments:
Assay type in all cases: in vivo
[1] = system: Diabrotica balteata (Corn root worm); test: Diabrotica balteata (Corn root worm), maize sprouts sprayed, L2 larvae mortality; conditions: 96 h, application rate of 200 ppm, L2 larvae on maize sprouts, assessed 4 days after infestation, read-out: control (mortality)
Method: Diabrotica balteata (Corn root worm):
Maize sprouts placed onto an agar layer in 24-well microtiter plates were treated with aqueous test solutions prepared from 10,000 ppm DMSO stock solutions by spraying. After drying, the plates were infested with L2 larvae (6 to 10 per well). The samples were assessed for mortality 4 days after infestation.

[2] = system: Plutella xylostella (Diamond back moth); test: Plutella xylostella (Diamond back moth): Feeding/contact activity; conditions: 120 h, application rate of 200 ppm, L2 larvae on artificial diet, assessed 5 days after infestation, read-out: control (mortality)
Method: Plutella xylostella (Diamond back moth): Feeding/contact activity
24-well microtiter plates with artificial diet were treated with aqueous test solutions prepared from 10,000 ppm DMSO stock solutions by pipetting. After drying, the plates were infested with L2 larvae (10 to 15 per well). The samples were assessed for mortality 5 days after infestation.

[3] = system: Myzus persicae (Green peach aphid); test: Myzus persicae (Green peach aphid): Feeding/Contact activity; conditions: foliar, 144 h, read-out: control (mortality)
Method: Myzus persicae (Green peach aphid): Feeding/Contact activity Sunflower leaf discs were placed onto agar in a 24-well microtiter plate and sprayed with aqueous test solutions prepared from 10,000 ppm DMSO stock solutions. After drying, the leaf discs were infested with an aphid population of mixed ages. The samples were assessed for mortality 6 days after infestation.

[4] = system: Tetranychus urticae (Two-spotted spider mite); test: Tetranychus urticae (Two-spotted spider mite): Feeding/contact activity; conditions: foliar, 192 h, read-out: control (mortality)
Method: Tetranychus urticae (Two-spotted spider mite): Feeding/contact activity
Bean leaf discs on agar in 24-well microtiter plates were sprayed with aqueous test solutions prepared from 10,000 ppm DMSO stock solutions. After drying the leaf discs were infested with a mite population of mixed ages. The samples were assessed for mortality on mixed population (mobile stages) 8 days after infestation.

[5] = system: Euschistus heros (Neotropical Brown Stink Bug); test: Euschistus heros (Neotropical Brown Stink Bug): Feeding/contact activity; conditions: 120 h, read-out: control (mortality)
Method: Euschistus heros (Neotropical Brown Stink Bug): Feeding/contact activity Soybean leaves on agar in 24-well microtiter plates were sprayed with aqueous test solutions prepared from 10,000 ppm DMSO stock solutions. After drying the leaves were infested with N2 nymphs. The samples were assessed for mortality 5 days after infestation.

[6] = system: Spodoptera littoralis (Egyptian cotton leaf worm); test: Spodoptera littoralis (Egyptian cotton leaf worm): Feeding/contact activity; conditions: foliar, 72 h, read-out: control (mortality)
Method: Spodoptera littoralis (Egyptian cotton leaf worm): Feeding/contact activity Cotton leaf discs were placed onto agar in 24-well microtiter plates and sprayed with aqueous test solutions prepared from 10,000 ppm DMSO stock solutions. After drying the leaf discs were infested with five L1 larvae. The samples were assessed for mortality 3 days after infestation.

[7] = application rate of 200 ppm, aphid population of mixed ages on sunflower leaf discs, assessed 6 days after infestation
[8] = application rate of 200 ppm, mite population of mixed ages (mobile stages) on bean leaf discs, assessed 8 days after infestation
[9] = application rate of 200 ppm, N2 nymphs on soybean leaves, assessed 5 days after infestation
[10] = application rate of 200 ppm, L1 larvae on cotton leaf discs, assessed 3 days after infestation

Measured: mortality at 200 ppm

Cn1c(-n2cc(-c3ccc(Cl)c(C(=O)NC4(C#N)CC4)c3)cn2)ccc1C(F)(C(F)(F)F)C(F)(F)F [Compound 1, 2-chloro-N-(1-cyanocyclopropyl)-5-[1-[1-methyl-5-[1,2,2,2-tetrafluoro-1-(trifluoromethyl)ethyl]pyrrol-2-yl]pyrazol-4-yl]benzamide]
≥ 80%: [1] | [2] | [3]; [7] | [4]; [8] | [5]; [9] | [6]; [10]

Cn1c(C(F)(C(F)(F)F)C(F)(F)F)cc(Br)c1-n1cc(-c2ccc(Cl)c(C(=O)NC3CC3)c2)cn1 [Compound 3, 5-[1-[3-bromo-1-methyl-5-[1,2,2,2-tetrafluoro-1-(trifluoromethyl)ethyl]pyrrol-2-yl]pyrazol-4-yl]-2-chloro-N-cyclopropyl-benzamide]
≥ 80%: [1] | [2] | [4]; [8] | [5]; [9] | [6]; [10]

Cn1c(-c2cc(-c3ccc(Cl)c(C(=O)NC4(C#N)CC4)c3)on2)ccc1C(F)(C(F)(F)F)C(F)(F)F [Compound 5, 2-chloro-N-(1-cyanocyclopropyl)-5-[3-[1-methyl-5-[1,2,2,2-tetrafluoro-1-(trifluoromethyl)ethyl]pyrrol-2-yl]isoxazol-5-yl]benzamide]
≥ 80%: [1] | [2] | [4]; [8] | [5]; [9] | [6]; [10]

Cn1c(C(F)(C(F)(F)F)C(F)(F)F)cc([N+](=O)[O-])c1-n1cc(-c2ccc(Cl)c(C(=O)NC3(C#N)CC3)c2)cn1 [Compound 7, 2-chloro-N-(1-cyanocyclopropyl)-5-[1-[1-methyl-3-nitro-5-[1,2,2,2-tetrafluoro-1-(trifluoromethyl)ethyl]pyrrol-2-yl]pyrazol-4-yl]benzamide]
≥ 80%: [6]; [10]

N#CCn1c(C(F)(C(F)(F)F)C(F)(F)F)cc(Br)c1-n1cc(-c2ccc(Cl)c(C(=O)NC3(C#N)CC3)c2)cn1 [Compound 13, 5-[1-[3-bromo-1-(cyanomethyl)-5-[1,2,2,2-tetrafluoro-1-(trifluoromethyl)ethyl]pyrrol-2-yl]pyrazol-4-yl]-2-chloro-N-(1-cyanocyclopropyl)benzamide]
≥ 80%: [1] | [2] | [4]; [8] | [5]; [9] | [6]; [10]

Cn1c(Br)c(Br)c(Br)c1-n1cc(-c2ccc(Cl)c(C(=O)NC3(C#N)CC3)c2)cn1 [Compound 15, 2-chloro-N-(1-cyanocyclopropyl)-5-[1-(3,4,5-tribromo-1-methyl-pyrrol-2-yl)pyrazol-4-yl]benzamide]
≥ 80%: [1] | [2] | [6]; [10]

Cn1c(C(F)(F)C(F)(F)F)cc(Br)c1-n1cc(-c2ccc(Cl)c(C(=O)NC3(C#N)CC3)c2)cn1 [Compound 31, 5-[1-[3-bromo-1-methyl-5-(1,1,2,2,2-pentafluoroethyl)pyrrol-2-yl]pyrazol-4-yl]-2-chloro-N-(1-cyanocyclopropyl)benzamide]
≥ 80%: [1] | [3]; [7] | [4]; [8] | [5]; [9]

Cn1c(SC(F)(F)F)cc(Cl)c1-n1cc(-c2ccc(Cl)c(C(=O)NC3(C#N)CC3)c2)cn1 [Compound 32, 2-chloro-5-[1-[3-chloro-1-methyl-5-(trifluoromethylsulfanyl)pyrrol-2-yl]pyrazol-4-yl]-N-(1-cyanocyclopropyl)benzamide]
≥ 80%: [1] | [3]; [7] | [4]; [8] | [5]; [9] | [6]; [10]

CC(=O)N(C(=O)c1cc(-c2cnn(-c3ccc(C(F)(C(F)(F)F)C(F)(F)F)n3C3CC3)c2)ccc1Cl)C(C)(C)C#N [Compound 35, N-acetyl-2-chloro-N-(1-cyano-1-methyl-ethyl)-5-[1-[1-cyclopropyl-5-[1,2,2,2-tetrafluoro-1-(trifluoromethyl)ethyl]pyrrol-2-yl]pyrazol-4-yl]benzamide]
≥ 80%: [3]; [7] | [4]; [8] | [5]; [9] | [6]; [10]

CC(=O)N(C(=O)c1cc(-c2cnn(-c3ccc(C(F)(C(F)(F)F)C(F)(F)F)n3C3CC3)c2)ccc1Cl)C1(C#N)CC1 [Compound 36, N-acetyl-2-chloro-N-(1-cyanocyclopropyl)-5-[1-[1-cyclopropyl-5-[1,2,2,2-tetrafluoro-1-(trifluoromethyl)ethyl]pyrrol-2-yl]pyrazol-4-yl]benzamide]
≥ 80%: [2] | [3]; [7] | [4]; [8] | [5]; [9] | [6]; [10]

CC(C)(C#N)NC(=O)c1cc(-c2cnn(-c3ccc(C(F)(C(F)(F)F)C(F)(F)F)n3C3CC3)c2)ccc1Cl [Compound 37, 2-chloro-N-(1-cyano-1-methyl-ethyl)-5-[1-[1-cyclopropyl-5-[1,2,2,2-tetrafluoro-1-(trifluoromethyl)ethyl]pyrrol-2-yl]pyrazol-4-yl]benzamide]
≥ 80%: [2] | [3]; [7] | [4]; [8] | [5]; [9] | [6]; [10]

CN(C(=O)c1cc(-c2cnn(-c3ccc(C(F)(C(F)(F)F)C(F)(F)F)n3C3CC3)c2)ccc1Cl)C1(C#N)CC1 [Compound 38, 2-chloro-N-(1-cyanocyclopropyl)-5-[1-[1-cyclopropyl-5-[1,2,2,2-tetrafluoro-1-(trifluoromethyl)ethyl]pyrrol-2-yl]pyrazol-4-yl]-N-methyl-benzamide]
≥ 80%: [2] | [3]; [7] | [4]; [8] | [5]; [9] | [6]; [10]

COC(=O)N(C(=O)c1cc(-c2cnn(-c3ccc(C(F)(C(F)(F)F)C(F)(F)F)n3C3CC3)c2)ccc1Cl)C1(C#N)CC1 [Compound 39, methyl N-[2-chloro-5-[1-[1-cyclopropyl-5-[1,2,2,2-tetrafluoro-1-(trifluoromethyl)ethyl]pyrrol-2-yl]pyrazol-4-yl]benzoyl]-N-(1-cyanocyclopropyl)carbamate]
≥ 80%: [3] | [4] | [5]; in Glycine max | [6]

N#CC1(NC(=O)c2cc(-c3cnn(-c4ccc(C(F)(C(F)(F)F)C(F)(F)F)n4C4CC4)c3)ccc2Cl)CC1 [Compound 40, 2-chloro-N-(1-cyanocyclopropyl)-5-[1-[1-cyclopropyl-5-[1,2,2,2-tetrafluoro-1-(trifluoromethyl)ethyl]pyrrol-2-yl]pyrazol-4-yl]benzamide]
≥ 80%: [2] | [4]; [8] | [5]; [9] | [6]; [10]

N#CC1(NC(=O)c2cc(-c3cnn(-c4c(Br)c(Br)c(SC(F)(F)F)n4C4CC4)c3)ccc2Cl)CC1 [Compound 41, 2-chloro-N-(1-cyanocyclopropyl)-5-[1-[3,4-dibromo-1-cyclopropyl-5-(trifluoromethylsulfanyl)pyrrol-2-yl]pyrazol-4-yl]benzamide]
≥ 80%: [1] | [2] | [4]; [8] | [5]; [9] | [6]; [10]
